Tests used:
Experiment in all cases: Test B pre-/postemergence plant response
Type in all cases: in vivo
[1] = tested on: bermudagrass (Cynodon dactylon); settings: for Bermudagrass plant response rating: 8 g ai/ha
Procedure, shortened: (§1)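 Visual scoring from 0 (no effect) to 100 (complete control) against untreated controls was done 13 to 15 days after greenhouse treatment. Chemicals were formulated in a surfactant-containing non-phytotoxic solvent and applied to soil preemergence or to 1- to 4-leaf (2-18 cm) plants postemergence.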

[2] = tested on: blackgrass (Alopecurus myosuroides); settings: for Blackgrass plant response rating: 8 g ai/ha
Procedure, shortened: as §1

[3] = tested on: catchweed bedstraw (Galium aparine); settings: Preemergence
Procedure, shortened: as §1

[4] = tested on: common (oilseed) sunflower (Helianthus annuus); settings: Preemergence; for Sunflower plant response rating: scale 0 to 100
Procedure, shortened: as §1

corn (Zea mays) = tested on: corn (Zea mays)
Procedure, shortened: as §1

[5] = tested on: downy bromegrass (Bromus tectorum); settings: for Bromegrass, Downy plant response rating: 8 g ai/ha
Procedure, shortened: as §1

[6] = tested on: giant foxtail (Setaria faberii)
Procedure, shortened: as §1

[7] = tested on: green foxtail (Setaria viridis)
Procedure, shortened: as §1

[8] = tested on: lambsquarters (Chenopodium album)
Procedure, shortened: as §1

[9] = tested on: large crabgrass (Digitaria sanguinalis)
Procedure, shortened: as §1

[10] = tested on: morningglory (Ipomoea coccinea)
Procedure, shortened: as §1

[11] = tested on: velvetleaf (Abutilon theophrasti)
Procedure, shortened: as §1

[12] = tested on: wheat (Triticum aestivum)
Procedure, shortened: as §1

wild oat (Avena fatua) = tested on: wild oat (Avena fatua)
Procedure, shortened: as §1

[13] = Postemergence, 16 g ai/ha, scale 0 to 100
[14] = Postemergence, 31 g ai/ha, scale 0 to 100
[15] = Postemergence, 62 g ai/ha, scale 0 to 100, 0 no effect, 100 complete control
[16] = Preemergence, 16 g ai/ha, scale 0 to 100 (0 no effect, 100 complete control)
[17] = Preemergence, 31 g ai/ha, scale 0 to 100 (0 no effect, 100 complete control)
[18] = Preemergence, 62 g ai/ha, 0 to 100 scale, 0 no effect, 100 complete control
[19] = 31 g ai/ha, scale 0 to 100 (0 no effect, 100 complete control)
[20] = 62 g ai/ha, 0 to 100 scale, 0 no effect, 100 complete control
[21] = 8 g ai/ha, postemergence, 0-100 scale
[22] = Preemergence, 8 g ai/ha, scale 0 to 100
[23] = Preemergence, 16 g ai/ha, scale 0 to 100
[24] = 16 g ai/ha, postemergence, 0-100 scale

CCc1cc(-c2ccc(Br)cc2)nn1-c1c(O)cnn(C)c1=O [Compound 61]
Bermudagrass plant response rating ([1]; postemergence, 0-100 scale): 55 | Plant response rating, Bermudagrass [1, 13]: 70 | Plant response rating, Bermudagrass [1, 14]: 95 | Plant response rating, Bermudagrass [1, 15]: 100 | Bermudagrass plant response rating ([1]; Preemergence, scale 0 to 100 (0 no effect, 100 complete control)): 55 | Plant response rating, Bermudagrass [1, 16]: 80 | Plant response rating, Bermudagrass [1, 17]: 90 | Plant response rating, Bermudagrass [1, 18]: 95 | Blackgrass plant response rating ([2]; postemergence, 0-100 scale): 85 | Plant response rating, Blackgrass [2, 13]: 100 | Plant response rating, Blackgrass [2, 14]: 100 | Plant response rating, Blackgrass [2, 15]: 100 | Plant response rating, Blackgrass [2, 16]: 100 | Plant response rating, Blackgrass [2, 17]: 100 | Plant response rating, Blackgrass [2, 18]: 100 | Blackgrass plant response rating ([2]; Preemergence, scale 0 to 100): 40 | Plant response rating, Galium [3, 19]: 0 | Plant response rating, Galium [3, 20]: 0 | Galium plant response rating ([3]; 8 g ai/ha, scale 0 to 100): 0 | Plant response rating, Sunflower [4, 19]: 0 | Plant response rating, Sunflower [4, 20]: 0 | Sunflower plant response rating ([4]; 8 g ai/ha): 0 | Sunflower plant response rating ([4]; 16 g ai/ha): 0 | Corn plant response rating (corn (Zea mays); [21]): 75 | Plant response rating, Corn (corn (Zea mays); [13]): 100 | Plant response rating, Corn (corn (Zea mays); [14]): 100 | Plant response rating, Corn (corn (Zea mays); [15]): 100 | Plant response rating, Corn (corn (Zea mays); [17]): 100 | Plant response rating, Corn (corn (Zea mays); [18]): 100 | Corn plant response rating (corn (Zea mays); [22]): 95 | Corn plant response rating (corn (Zea mays); [23]): 98 | Bromegrass, Downy plant response rating ([5]; postemergence, 0-100 scale): 80 | Plant response rating, Bromegrass, Downy [5, 13]: 90 | Plant response rating, Bromegrass, Downy [5, 14]: 98 | Plant response rating, Bromegrass, Downy [5, 15]: 98 | Plant response rating, Bromegrass, Downy [5, 16]: 90 | Plant response rating, Bromegrass, Downy [5, 17]: 95 | Plant response rating, Bromegrass, Downy [5, 18]: 95 | Bromegrass, Downy plant response rating ([5]; Preemergence, scale 0 to 100): 0 | Foxtail, Giant plant response rating [6, 21]: 98 | Plant response rating, Foxtail, Giant [6, 13]: 100 | Plant response rating, Foxtail, Giant [6, 14]: 100 | Plant response rating, Foxtail, Giant [6, 15]: 100 | Plant response rating, Foxtail, Giant [6, 17]: 100 | Plant response rating, Foxtail, Giant [6, 18]: 100 | Foxtail, Giant plant response rating [6, 22]: 75 | Foxtail, Giant plant response rating [6, 23]: 100 | Foxtail, Green plant response rating [7, 21]: 95 | Plant response rating, Foxtail, Green [7, 13]: 100 | Plant response rating, Foxtail, Green [7, 14]: 100 | Plant response rating, Foxtail, Green [7, 15]: 100 | Plant response rating, Foxtail, Green [7, 17]: 100 | Plant response rating, Foxtail, Green [7, 18]: 100 | Foxtail, Green plant response rating [7, 22]: 100 | Foxtail, Green plant response rating [7, 23]: 100 | Lambsquarters plant response rating [8, 21]: 0 | Lambsquarters plant response rating [8, 24]: 0 | Plant response rating, Lambsquarters [8, 14]: 0 | Plant response rating, Lambsquarters [8, 15]: 0 | Plant response rating, Lambsquarters [8, 17]: 0 | Plant response rating, Lambsquarters [8, 18]: 0 | Lambsquarters plant response rating [8, 22]: 0 | Lambsquarters plant response rating [8, 23]: 0 | Crabgrass, Large plant response rating [9, 21]: 98 | Plant response rating, Crabgrass, Large [9, 13]: 100 | Plant response rating, Crabgrass, Large [9, 14]: 100 | Plant response rating, Crabgrass, Large [9, 15]: 100 | Plant response rating, Crabgrass, Large [9, 17]: 100 | Plant response rating, Crabgrass, Large [9, 18]: 100 | Crabgrass, Large plant response rating [9, 22]: 50 | Crabgrass, Large plant response rating [9, 23]: 95 | Morningglory plant response rating [10, 21]: 0 | Morningglory plant response rating [10, 24]: 0 | Plant response rating, Morningglory [10, 14]: 0 | Plant response rating, Morningglory [10, 15]: 0 | Plant response rating, Morningglory [10, 17]: 0 | Plant response rating, Morningglory [10, 18]: 0 | Morningglory plant response rating [10, 22]: 0 | Morningglory plant response rating [10, 23]: 0 | Velvetleaf plant response rating [11, 21]: 0 | Velvetleaf plant response rating [11, 24]: 0 | Plant response rating, Velvetleaf [11, 14]: 0 | Plant response rating, Velvetleaf [11, 15]: 0 | Plant response rating, Velvetleaf [11, 17]: 0 | Plant response rating, Velvetleaf [11, 18]: 0 | Velvetleaf plant response rating [11, 22]: 0 | Velvetleaf plant response rating [11, 23]: 0 | Wheat plant response rating [12, 21]: 90 | Wheat plant response rating [12, 24]: 95 | Plant response rating, Wheat [12, 14]: 98 | Plant response rating, Wheat [12, 15]: 100 | Plant response rating, Wheat [12, 17]: 90 | Plant response rating, Wheat [12, 18]: 95 | Wheat plant response rating [12, 23]: 30 | Oat, Wild plant response rating (wild oat (Avena fatua); [21]): 100 | Oat, Wild plant response rating (wild oat (Avena fatua); [24]): 100 | Plant response rating, Oat, Wild (wild oat (Avena fatua); [14]): 100 | Plant response rating, Oat, Wild (wild oat (Avena fatua); [15]): 100 | Plant response rating, Oat, Wild (wild oat (Avena fatua); [17]): 95 | Plant response rating, Oat, Wild (wild oat (Avena fatua); [18]): 100 | Oat, Wild plant response rating (wild oat (Avena fatua); [22]): 40 | Oat, Wild plant response rating (wild oat (Avena fatua); [23]): 90

— US20100267561A1, “HERBICIDAL PYRIDAZINONE DERIVATIVES” (priority 2007, published 2010)
